The text below walks through data of ChEMBL document CHEMBL3352520, “CoMFA and CoMSIA analysis of ACE-inhibitory, antimicrobial and bitter-tasting peptides” (Eur J Med Chem, 2014).

Residues, ends and D or L forms follow the SMILES beside them.

Angiotensin-converting enzyme (Homo sapiens), sequence (P12821 whole entry): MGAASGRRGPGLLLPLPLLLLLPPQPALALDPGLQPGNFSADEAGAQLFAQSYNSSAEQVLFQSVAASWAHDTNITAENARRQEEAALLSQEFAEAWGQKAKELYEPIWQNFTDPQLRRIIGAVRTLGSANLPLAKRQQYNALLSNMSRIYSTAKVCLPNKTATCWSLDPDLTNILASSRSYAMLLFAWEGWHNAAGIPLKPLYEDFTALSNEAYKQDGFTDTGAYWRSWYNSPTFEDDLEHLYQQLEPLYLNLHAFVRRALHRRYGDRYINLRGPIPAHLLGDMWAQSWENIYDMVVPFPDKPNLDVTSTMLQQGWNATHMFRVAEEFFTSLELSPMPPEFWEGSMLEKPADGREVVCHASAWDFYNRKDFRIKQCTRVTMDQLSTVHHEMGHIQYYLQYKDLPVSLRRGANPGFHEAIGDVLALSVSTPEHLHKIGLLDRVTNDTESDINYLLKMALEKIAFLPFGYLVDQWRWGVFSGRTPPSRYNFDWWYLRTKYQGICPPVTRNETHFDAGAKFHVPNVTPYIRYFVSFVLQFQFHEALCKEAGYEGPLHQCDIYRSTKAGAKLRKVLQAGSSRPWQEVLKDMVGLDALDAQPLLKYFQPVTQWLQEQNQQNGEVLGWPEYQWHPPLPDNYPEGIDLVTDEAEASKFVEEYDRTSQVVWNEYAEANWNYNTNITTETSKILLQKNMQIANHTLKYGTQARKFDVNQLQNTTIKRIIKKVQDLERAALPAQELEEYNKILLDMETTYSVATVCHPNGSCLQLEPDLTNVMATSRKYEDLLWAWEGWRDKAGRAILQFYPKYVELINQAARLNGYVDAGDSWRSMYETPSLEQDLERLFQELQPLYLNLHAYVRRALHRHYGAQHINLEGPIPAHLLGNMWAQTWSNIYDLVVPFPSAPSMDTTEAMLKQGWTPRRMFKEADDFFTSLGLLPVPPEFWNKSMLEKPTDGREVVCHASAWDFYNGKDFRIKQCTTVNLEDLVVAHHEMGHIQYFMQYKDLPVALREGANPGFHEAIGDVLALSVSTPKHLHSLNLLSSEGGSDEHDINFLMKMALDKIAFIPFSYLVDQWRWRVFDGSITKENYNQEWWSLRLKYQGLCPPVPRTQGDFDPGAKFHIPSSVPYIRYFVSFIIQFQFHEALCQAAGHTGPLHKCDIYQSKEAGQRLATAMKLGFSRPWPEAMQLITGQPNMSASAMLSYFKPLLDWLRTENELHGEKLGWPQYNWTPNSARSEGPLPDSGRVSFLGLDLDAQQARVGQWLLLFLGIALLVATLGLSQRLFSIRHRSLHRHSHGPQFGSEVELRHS

This assay has as its target Angiotensin-converting enzyme (Homo sapiens) (UniProt P12821). Briefly: Inhibition of ACE (unknown origin). Also noted: unit not given here.
With `CC(C)C[C@H](N)C(=O)N[C@@H](Cc1c[nH]c2ccccc12)C(=O)O`, the logIC50 is 1.24. The value for `CC(C)C[C@H](N)C(=O)N[C@@H](Cc1ccc(O)cc1)C(=O)O` was 1.51. Next, `CC[C@H](C)[C@H](N)C(=O)N[C@@H](Cc1c[nH]c2ccccc12)C(=O)O`: 0.67. Next, `C[C@H](N)C(=O)N[C@@H](Cc1ccccc1)C(=O)O`: 1.88.

Turning to `NC(N)=NCCC[C@H](N)C(=O)N[C@@H](Cc1ccccc1)C(=O)O`, the logIC50 was determined as 1.97. The value for `NCCCC[C@H](N)C(=O)N[C@@H](Cc1ccccc1)C(=O)O` was 1.45; that for `CC(C)[C@H](NC(=O)[C@H](C)N)C(=O)NCC(=O)N1CCC[C@H]1C(=O)O` (H-AVGP-OH) was 0.49. For `CC(C)C[C@H](NC(=O)[C@H](C)N)C(=O)N1CCC[C@H]1C(=O)O` (H-Ala-Leu-Pro-OH), the logIC50 came to 2.38. Next, `C[C@H](N)C(=O)N[C@@H](Cc1c[nH]c2ccccc12)C(=O)O` (H-Ala-Trp-OH): 1.08; `C[C@H](N)C(=O)N[C@@H](Cc1ccc(O)cc1)C(=O)O` (H-Ala-Tyr-OH): 1.28. Next, `CC(C)[C@H](NC(=O)[C@H](C)N)C(=O)N1CCC[C@H]1C(=O)O` (H-Ala-Val-Pro-OH): 2.53. The value for `NC(N)=NCCC[C@H](N)C(=O)N1CCC[C@H]1C(=O)O` (H-Arg-Pro-OH) was 1.32; that for `NC(N)=NCCC[C@H](N)C(=O)N[C@@H](Cc1c[nH]c2ccccc12)C(=O)O` (H-Arg-Trp-OH) was 1.2.

`N=C(N)NCCC[C@H](N)C(=O)N[C@@H](Cc1ccc(O)cc1)C(=O)O` (H-Arg-Tyr-OH) registered a logIC50 of 1.71. Next, `NC(=O)C[C@H](N)C(=O)N[C@@H](Cc1ccccc1)C(=O)O` (H-Asn-Phe-OH): 1.67; `NC(=O)C[C@H](N)C(=O)N[C@@H](Cc1ccc(O)cc1)C(=O)O` (H-Asn-Tyr-OH): 1.51.

Consider `CC(C)C[C@H](NC(=O)[C@@H](N)CC(=O)O)C(=O)N1CCC[C@H]1C(=O)O` (H-Asp-Leu-Pro-OH), for which the logIC50 was determined as 0.68.

For `N[C@@H](CC(=O)O)C(=O)N[C@@H](Cc1ccccc1)C(=O)O` (H-Asp-Phe-OH), the logIC50 worked out at 2.56. The value for `N[C@@H](CC(=O)O)C(=O)N[C@@H](Cc1ccc(O)cc1)C(=O)O` (H-Asp-Tyr-OH) was 2; that for `CC(C)[C@H](NC(=O)[C@@H](N)Cc1ccccc1)C(=O)N[C@@H](C)C(=O)N1CCC[C@H]1C(=O)O` (H-FVAP-OH) was 1.

For the compound `C[C@H](NC(=O)[C@H](Cc1c[nH]c2ccccc12)NC(=O)CN)C(=O)N1CCC[C@H]1C(=O)O` (H-GWAP-OH), the logIC50 amounted to 0.59. The value for `N=C(N)NCCC[C@H](NC(=O)CN)C(=O)N1CCC[C@H]1C(=O)O` (H-Gly-Arg-Pro-OH) was 1.3. The value for `NCC(=O)N[C@@H](CCC(=O)O)C(=O)N1CCC[C@H]1C(=O)O` (H-Gly-Glu-Pro-OH) was 2.51; that for `NCCCC[C@H](NC(=O)CN)C(=O)N1CCC[C@H]1C(=O)O` (H-Gly-Lys-Pro-OH) was 2.55.

`NCC(=O)N[C@@H](Cc1ccccc1)C(=O)O` (H-Gly-Phe-OH): the logIC50 was 2.44. Next, `NCC(=O)N1CCC[C@H]1C(=O)O` (H-Gly-Pro-OH): 2.56; `NCC(=O)N[C@@H](Cc1c[nH]c2ccccc12)C(=O)O` (H-Gly-Trp-OH): 1.4; `NCC(=O)N[C@@H](Cc1ccc(O)cc1)C(=O)O` (H-Gly-Tyr-OH): 2.32. Next, `N[C@@H](Cc1cnc[nH]1)C(=O)N[C@@H](Cc1ccc(O)cc1)C(=O)O` (H-His-Tyr-OH): 1.42; `CC[C@H](C)[C@H](N)C(=O)N[C@@H](CC(C)C)C(=O)N1CCC[C@H]1C(=O)N1CCC[C@H]1C(=O)O` (H-ILPP-OH): 2.24; `CC[C@H](C)[C@H](N)C(=O)N[C@@H](C)C(=O)N1CCC[C@H]1C(=O)O` (H-Ile-Ala-Pro-OH): 0.43.

As for `CC[C@H](C)[C@H](N)C(=O)N[C@@H](CCCNC(=N)N)C(=O)N1CCC[C@H]1C(=O)O` (H-Ile-Arg-Pro-OH), the logIC50 was -0.13. The value for `CC[C@H](C)[C@H](N)C(=O)N[C@@H](CCC(=O)O)C(=O)N1CCC[C@H]1C(=O)O` (H-Ile-Glu-Pro-OH) was 0.2; that for `CC[C@H](C)[C@H](N)C(=O)N[C@@H](CCCCN)C(=O)N1CCC[C@H]1C(=O)O` (H-Ile-Lys-Pro-OH) was 0.84. Next, `CC[C@H](C)[C@H](N)C(=O)N1CCC[C@H]1C(=O)O` (H-Ile-Pro-OH): 2.11. Next, `CC[C@H](C)[C@H](N)C(=O)N[C@@H](Cc1ccc(O)cc1)C(=O)O` (H-Ile-Tyr-OH): 0.79; `CC(C)C[C@H](N)C(=O)N[C@H](C(=O)N1CCC[C@H]1C(=O)N1CCC[C@H]1C(=O)O)C(C)C` (H-LVPP-OH): 2.1. As to `CC(C)C[C@H](N)C(=O)N[C@@H](C)C(=O)N1CCC[C@H]1C(=O)O` (H-Leu-Ala-Pro-OH), the logIC50 came to 0.54.

In turn, `CC(C)C[C@H](N)C(=O)N[C@@H](CCCN=C(N)N)C(=O)N1CCC[C@H]1C(=O)O` (H-Leu-Arg-Pro-OH) yielded a logIC50 of -0.57. Next, `CC(C)C[C@H](N)C(=O)N[C@@H](CC(N)=O)C(=O)N1CCC[C@H]1C(=O)O` (H-Leu-Asn-Pro-OH): 1.76; `CC(C)C[C@H](N)C(=O)N[C@@H](CCC(N)=O)C(=O)N1CCC[C@H]1C(=O)O` (H-Leu-Gln-Pro-OH): 0.28. Next, `CC(C)C[C@H](N)C(=O)N[C@@H](CCC(=O)O)C(=O)N1CCC[C@H]1C(=O)O` (H-Leu-Glu-Pro-OH): 0.28; `CC(C)C[C@H](N)C(=O)N[C@@H](CCCCN)C(=O)N1CCC[C@H]1C(=O)O` (H-Leu-Lys-Pro-OH): 0.6. For `CC(C)C[C@H](N)C(=O)N[C@@H](CO)C(=O)N1CCC[C@H]1C(=O)O` (H-Leu-Ser-Pro-OH), the logIC50 amounted to 0.23.

In turn, `CC(C)C[C@H](N)C(=O)N[C@@H](Cc1ccc(O)cc1)C(=O)N1CCC[C@H]1C(=O)O` (H-Leu-Tyr-Pro-OH) registered a logIC50 of 0.82. On to `NCCCC[C@H](N)C(=O)N1CCC[C@H]1C(=O)O` (H-Lys-Pro-OH), for which the logIC50 is 1.34.

Regarding `CSCC[C@H](N)C(=O)N[C@@H](CC(N)=O)C(=O)N1CCC[C@H]1C(=O)O` (H-Met-Asn-Pro-OH), the logIC50 came to 1.82. Next, `CSCC[C@H](N)C(=O)N[C@@H](Cc1ccccc1)C(=O)O` (H-Met-Phe-OH): 1.65; `CSCC[C@H](N)C(=O)N[C@@H](Cc1c[nH]c2ccccc12)C(=O)O` (H-Met-Trp-OH): 1; `NCCCC[C@H](NC(=O)[C@@H]1CCCN1)C(=O)N[C@@H](Cc1cnc[nH]1)C(=O)N1CCC[C@H]1C(=O)O` (H-PKHP-OH): 2.85. Next, `C[C@H](NC(=O)[C@@H](N)Cc1ccccc1)C(=O)N1CCC[C@H]1C(=O)O` (H-Phe-Ala-Pro-OH): 0.58. Consider `NC(=O)CC[C@H](NC(=O)[C@@H](N)Cc1ccccc1)C(=O)N1CCC[C@H]1C(=O)O` (H-Phe-Gln-Pro-OH), for which the logIC50 came to 1.08. The value for `N[C@@H](Cc1ccccc1)C(=O)N[C@@H](CCC(=O)O)C(=O)N1CCC[C@H]1C(=O)O` (H-Phe-Glu-Pro-OH) was 1.08; that for `N[C@@H](Cc1ccccc1)C(=O)N1CCC[C@H]1C(=O)O` (H-Phe-Pro-OH) was 2.5; that for `N[C@@H](Cc1ccccc1)C(=O)N[C@@H](Cc1ccc(O)cc1)C(=O)O` (H-Phe-Tyr-OH) was 1.4. The value for `N[C@@H](CO)C(=O)N1CCC[C@H]1C(=O)N[C@@H](Cc1ccc(O)cc1)C(=O)N1CCC[C@H]1C(=O)O` (H-SPYP-OH) was 2.93; that for `N[C@@H](CO)C(=O)N[C@@H](Cc1ccc(O)cc1)C(=O)O` (H-Ser-Tyr-OH) was 1.82; that for `C[C@@H](O)[C@H](N)C(=O)N[C@@H](CC(N)=O)C(=O)N1CCC[C@H]1C(=O)O` (H-Thr-Asn-Pro-OH) was 2.32. The value for `C[C@@H](O)[C@H](N)C(=O)N[C@@H](Cc1ccccc1)C(=O)O` (H-Thr-Phe-OH) was 1.95. On to `C[C@@H](O)[C@H](N)C(=O)N1CCC[C@H]1C(=O)O` (H-Thr-Pro-OH), for which the logIC50 is 2.46. `N[C@@H](Cc1ccc(O)cc1)C(=O)N1CCC[C@H]1C(=O)O` (H-Tyr-Pro-OH) came in with a logIC50 of 2.86.

Turning to `CC(C)[C@H](N)C(=O)N[C@@H](CO)C(=O)N[C@@H](CO)C(=O)N1CCC[C@H]1C(=O)O` (H-VSSP-OH), the logIC50 stood at 1. `CC(C)[C@H](N)C(=O)N[C@H](C(=O)N1CCC[C@H]1C(=O)N1CCC[C@H]1C(=O)O)C(C)C` (H-VVPP-OH) had a logIC50 of 2.45. `CC(C)[C@H](N)C(=O)N[C@@H](CCCNC(=N)N)C(=O)N1CCC[C@H]1C(=O)O` (H-Val-Arg-Pro-OH) displayed a logIC50 of 0.34. As to `CC(C)[C@H](N)C(=O)NCC(=O)N1CCC[C@H]1C(=O)O` (H-Val-Gly-Pro-OH), the logIC50 was found to be 1.42. The value for `CSCC[C@H](NC(=O)[C@@H](N)C(C)C)C(=O)N1CCC[C@H]1C(=O)O` (H-Val-Met-Pro-OH) was 1.46. Next, `CC(C)[C@H](N)C(=O)N[C@@H](Cc1ccccc1)C(=O)O` (H-Val-Phe-OH): 0.96; `CC(C)[C@H](N)C(=O)N1CCC[C@H]1C(=O)O` (H-Val-Pro-OH): 2.62; `CC(C)[C@H](N)C(=O)N[C@@H](CO)C(=O)N1CCC[C@H]1C(=O)O` (H-Val-Ser-Pro-OH): 1. Consider `CC(C)[C@H](N)C(=O)N[C@@H](Cc1ccc(O)cc1)C(=O)O` (H-Val-Tyr-OH), for which the logIC50 was found to be 1.2. Next, `CC(C)[C@H](N)C(=O)N[C@@H](Cc1ccc(O)cc1)C(=O)N1CCC[C@H]1C(=O)O` (H-Val-Tyr-Pro-OH): 2.46; H-APVPP-OH: 2.8; H-AVPYP-OH: 1.9. In turn, H-DKIHP-OH yielded a logIC50 of 2.05. The value for H-DYGLYP-OH was 1.79; that for H-FFVAP-OH was 0.78. Next, H-GRVMP-OH: 2.4. Next, H-HQIYP-OH: 2.04; H-IAYKP-OH: 0.34.
